Results from patent publication US8426437B2, “Pyrroloquinoline derivatives and their use as protein kinases inhibitors” (Pierre Fabre Medicament, priority 2005, dated 2013).
Values belong to the compound of their own block, whether it stands above or below them.

Legend:
Assay type in all cases: biochemical
Flt3 (h) = biological target: T1, Flt3 (h) (Homo sapiens, UniProt P36888); assay: Upstate kinase panel: Flt3
T1 construct: purchased Upstate
T1 sequence (P36888 27-993): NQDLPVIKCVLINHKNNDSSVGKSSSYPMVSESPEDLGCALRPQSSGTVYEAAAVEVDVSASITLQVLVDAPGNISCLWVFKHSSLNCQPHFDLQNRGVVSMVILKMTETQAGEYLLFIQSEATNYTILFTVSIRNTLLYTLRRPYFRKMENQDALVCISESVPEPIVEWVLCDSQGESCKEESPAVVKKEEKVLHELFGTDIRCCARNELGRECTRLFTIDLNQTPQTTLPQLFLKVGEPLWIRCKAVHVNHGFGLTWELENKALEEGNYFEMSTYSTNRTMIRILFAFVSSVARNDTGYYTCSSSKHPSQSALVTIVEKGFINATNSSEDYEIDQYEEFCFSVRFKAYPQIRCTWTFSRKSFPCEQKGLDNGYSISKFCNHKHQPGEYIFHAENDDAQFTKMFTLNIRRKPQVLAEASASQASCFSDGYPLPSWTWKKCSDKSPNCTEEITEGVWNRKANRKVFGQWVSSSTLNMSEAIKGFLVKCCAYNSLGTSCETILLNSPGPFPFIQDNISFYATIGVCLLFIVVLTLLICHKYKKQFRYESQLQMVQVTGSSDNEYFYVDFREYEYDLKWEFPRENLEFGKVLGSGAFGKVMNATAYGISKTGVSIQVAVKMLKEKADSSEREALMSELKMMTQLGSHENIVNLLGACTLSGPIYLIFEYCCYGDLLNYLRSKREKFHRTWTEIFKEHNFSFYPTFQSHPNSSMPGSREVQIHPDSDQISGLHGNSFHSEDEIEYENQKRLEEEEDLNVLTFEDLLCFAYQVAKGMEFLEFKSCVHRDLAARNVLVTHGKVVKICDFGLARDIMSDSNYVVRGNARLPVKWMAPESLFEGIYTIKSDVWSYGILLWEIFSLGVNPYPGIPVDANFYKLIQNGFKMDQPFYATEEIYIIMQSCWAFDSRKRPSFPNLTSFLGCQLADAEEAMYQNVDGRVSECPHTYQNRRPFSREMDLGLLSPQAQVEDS
Experimental: (§1) These kinases are produced by Upstate and screened according to the respective protocols indicated by the supplier (http://www.upstate.com/features/kp_protocols.asp). Examples 1, 12, 166 and 238 were tested at a concentration of 20 μM, 10 μM, 1 μM and 1 μM respectively in the presence of 10 μM of ATP for examples 1 and 12 and at the concentrations of ATP shown in parentheses for examples 166 and 238. The results shown in Table VII correspond to percentage inhibition of the kinase tested in the presence of the compound, relative to a control effected without the compound.

PDGFRβ (h) = biological target: T2, PDGFRβ (h) (Homo sapiens, UniProt P09619); assay: Upstate kinase panel: PDGFRβ
T2 construct: purchased Upstate
T2 sequence (P09619 33-1106): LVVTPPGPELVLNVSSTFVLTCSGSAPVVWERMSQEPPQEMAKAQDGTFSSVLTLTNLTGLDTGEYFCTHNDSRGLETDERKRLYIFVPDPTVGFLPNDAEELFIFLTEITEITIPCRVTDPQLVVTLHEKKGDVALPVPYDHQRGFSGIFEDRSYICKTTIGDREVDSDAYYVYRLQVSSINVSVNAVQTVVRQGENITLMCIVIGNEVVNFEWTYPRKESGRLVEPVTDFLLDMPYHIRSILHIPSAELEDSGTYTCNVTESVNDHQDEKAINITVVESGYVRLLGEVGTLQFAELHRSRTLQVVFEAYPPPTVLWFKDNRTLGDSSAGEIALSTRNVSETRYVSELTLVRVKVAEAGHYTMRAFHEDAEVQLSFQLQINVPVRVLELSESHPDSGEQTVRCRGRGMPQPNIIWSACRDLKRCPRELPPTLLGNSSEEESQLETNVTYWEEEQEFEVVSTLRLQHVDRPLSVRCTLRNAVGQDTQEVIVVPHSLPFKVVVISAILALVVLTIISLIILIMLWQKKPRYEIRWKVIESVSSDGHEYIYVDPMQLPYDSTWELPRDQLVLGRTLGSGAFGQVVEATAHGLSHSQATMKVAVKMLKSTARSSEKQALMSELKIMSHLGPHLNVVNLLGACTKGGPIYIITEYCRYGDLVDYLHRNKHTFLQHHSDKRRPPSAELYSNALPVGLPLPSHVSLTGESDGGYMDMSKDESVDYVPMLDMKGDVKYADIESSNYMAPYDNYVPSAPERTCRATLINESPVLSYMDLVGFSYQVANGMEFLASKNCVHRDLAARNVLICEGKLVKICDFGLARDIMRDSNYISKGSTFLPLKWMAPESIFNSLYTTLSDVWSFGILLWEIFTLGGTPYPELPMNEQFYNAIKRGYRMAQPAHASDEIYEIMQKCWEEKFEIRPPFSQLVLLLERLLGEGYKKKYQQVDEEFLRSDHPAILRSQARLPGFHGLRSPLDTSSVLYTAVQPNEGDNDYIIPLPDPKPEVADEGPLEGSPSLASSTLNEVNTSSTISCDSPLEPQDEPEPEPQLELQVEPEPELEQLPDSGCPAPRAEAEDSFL
Experimental: as §1

cKit (h) = biological target: T3, cKit (h) (Homo sapiens, UniProt P10721); assay: Upstate kinase panel: cKit
T3 construct: purchased Upstate
T3 sequence (P10721 26-976): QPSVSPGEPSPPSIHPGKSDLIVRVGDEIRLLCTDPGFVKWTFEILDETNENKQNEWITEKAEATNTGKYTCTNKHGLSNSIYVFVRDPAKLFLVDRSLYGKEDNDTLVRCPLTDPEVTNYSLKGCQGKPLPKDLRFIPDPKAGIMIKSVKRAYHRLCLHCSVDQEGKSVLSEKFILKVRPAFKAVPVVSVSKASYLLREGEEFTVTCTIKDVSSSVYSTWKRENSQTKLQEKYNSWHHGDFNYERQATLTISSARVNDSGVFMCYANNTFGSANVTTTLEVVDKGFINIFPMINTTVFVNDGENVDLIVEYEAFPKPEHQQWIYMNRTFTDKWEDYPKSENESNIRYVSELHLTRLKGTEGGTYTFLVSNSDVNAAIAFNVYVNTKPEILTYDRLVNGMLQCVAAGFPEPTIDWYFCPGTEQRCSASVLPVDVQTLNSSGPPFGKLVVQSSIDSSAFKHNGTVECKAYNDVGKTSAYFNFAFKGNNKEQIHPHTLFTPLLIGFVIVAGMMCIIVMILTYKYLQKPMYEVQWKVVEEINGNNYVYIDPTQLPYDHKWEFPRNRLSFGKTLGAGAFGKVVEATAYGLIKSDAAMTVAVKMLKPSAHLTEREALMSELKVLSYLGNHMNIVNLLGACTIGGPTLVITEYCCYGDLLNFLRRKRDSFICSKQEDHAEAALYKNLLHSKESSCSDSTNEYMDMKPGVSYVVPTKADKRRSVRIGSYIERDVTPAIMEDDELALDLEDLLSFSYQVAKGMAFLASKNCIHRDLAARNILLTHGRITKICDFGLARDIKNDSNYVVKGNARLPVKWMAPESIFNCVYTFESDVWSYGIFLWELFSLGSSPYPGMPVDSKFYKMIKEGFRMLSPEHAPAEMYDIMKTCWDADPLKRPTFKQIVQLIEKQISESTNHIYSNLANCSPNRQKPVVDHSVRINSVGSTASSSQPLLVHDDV
Experimental: as §1

JAK3 (h) = biological target: T4, JAK3 (h) (Homo sapiens, UniProt P52333); assay: Upstate kinase panel: JAK3
T4 construct: purchased Upstate
T4 sequence (P52333 1-1124): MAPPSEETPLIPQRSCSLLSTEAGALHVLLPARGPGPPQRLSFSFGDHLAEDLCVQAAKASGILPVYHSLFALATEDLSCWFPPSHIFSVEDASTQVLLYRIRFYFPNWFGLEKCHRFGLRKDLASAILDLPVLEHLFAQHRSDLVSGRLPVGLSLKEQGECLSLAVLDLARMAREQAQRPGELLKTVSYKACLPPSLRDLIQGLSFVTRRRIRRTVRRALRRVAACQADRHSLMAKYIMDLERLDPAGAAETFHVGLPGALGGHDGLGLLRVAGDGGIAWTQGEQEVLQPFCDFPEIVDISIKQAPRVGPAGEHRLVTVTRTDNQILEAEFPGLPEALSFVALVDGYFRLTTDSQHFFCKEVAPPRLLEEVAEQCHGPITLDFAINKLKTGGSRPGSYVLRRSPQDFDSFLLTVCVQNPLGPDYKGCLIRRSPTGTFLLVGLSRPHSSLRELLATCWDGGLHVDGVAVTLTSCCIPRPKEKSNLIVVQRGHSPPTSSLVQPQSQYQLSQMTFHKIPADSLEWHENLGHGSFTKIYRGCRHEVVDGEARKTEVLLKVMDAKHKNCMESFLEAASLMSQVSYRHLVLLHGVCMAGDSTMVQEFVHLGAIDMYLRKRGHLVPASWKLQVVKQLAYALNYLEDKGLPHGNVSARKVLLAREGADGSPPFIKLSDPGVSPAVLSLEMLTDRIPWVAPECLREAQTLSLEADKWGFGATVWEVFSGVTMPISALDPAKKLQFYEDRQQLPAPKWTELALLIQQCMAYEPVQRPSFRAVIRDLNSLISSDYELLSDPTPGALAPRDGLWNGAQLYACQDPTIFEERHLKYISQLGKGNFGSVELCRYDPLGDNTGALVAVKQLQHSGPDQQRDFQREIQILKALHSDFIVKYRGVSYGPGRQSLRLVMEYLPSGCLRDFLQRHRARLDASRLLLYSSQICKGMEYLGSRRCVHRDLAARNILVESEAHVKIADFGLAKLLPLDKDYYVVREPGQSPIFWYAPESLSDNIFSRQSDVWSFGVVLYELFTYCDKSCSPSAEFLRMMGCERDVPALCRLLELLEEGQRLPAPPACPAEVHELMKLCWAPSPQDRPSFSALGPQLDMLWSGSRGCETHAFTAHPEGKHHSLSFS
Experimental: as §1

GSK3B (h) = biological target: T5, GSK3B (h) (Homo sapiens, UniProt P49841); assay: Upstate kinase panel: GSK3B
T5 construct: purchased Upstate
T5 sequence (P49841 whole entry): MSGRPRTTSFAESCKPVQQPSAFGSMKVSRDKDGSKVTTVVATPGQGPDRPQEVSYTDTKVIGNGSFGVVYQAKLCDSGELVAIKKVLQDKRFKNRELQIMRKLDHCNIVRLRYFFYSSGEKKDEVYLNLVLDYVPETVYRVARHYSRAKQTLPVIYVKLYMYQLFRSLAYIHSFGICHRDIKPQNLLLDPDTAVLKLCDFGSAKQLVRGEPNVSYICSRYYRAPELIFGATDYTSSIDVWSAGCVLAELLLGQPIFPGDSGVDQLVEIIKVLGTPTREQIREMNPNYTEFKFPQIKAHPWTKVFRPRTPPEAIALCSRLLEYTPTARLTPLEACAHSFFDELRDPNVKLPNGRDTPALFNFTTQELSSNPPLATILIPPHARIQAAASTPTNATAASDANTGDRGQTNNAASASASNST
Experimental: as §1

PKBγ (h) = biological target: T6, PKBγ (h) (Homo sapiens, UniProt Q9Y243); assay: Upstate kinase panel: PKBγ
T6 construct: purchased Upstate
T6 sequence (Q9Y243 whole entry): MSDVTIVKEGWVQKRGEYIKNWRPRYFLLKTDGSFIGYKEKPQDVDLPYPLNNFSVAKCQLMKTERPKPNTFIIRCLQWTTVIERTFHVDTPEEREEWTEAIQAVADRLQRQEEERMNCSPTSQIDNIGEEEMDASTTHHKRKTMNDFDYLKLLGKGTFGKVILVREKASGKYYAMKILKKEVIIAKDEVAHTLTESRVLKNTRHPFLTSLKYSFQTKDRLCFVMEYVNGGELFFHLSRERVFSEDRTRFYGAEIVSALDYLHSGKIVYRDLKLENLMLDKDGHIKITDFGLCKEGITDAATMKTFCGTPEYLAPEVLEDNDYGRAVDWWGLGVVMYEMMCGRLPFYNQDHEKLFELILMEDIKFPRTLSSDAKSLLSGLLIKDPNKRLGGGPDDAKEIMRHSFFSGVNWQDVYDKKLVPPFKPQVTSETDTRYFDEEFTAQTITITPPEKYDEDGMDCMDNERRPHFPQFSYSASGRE
Experimental: as §1

FGFR2 (h) = biological target: T7, FGFR2 (h) (Homo sapiens, UniProt P21802); assay: Upstate kinase panel: FGFR2; conditions: 10 μM ATP
T7 construct: purchased Upstate
T7 sequence (P21802 22-821): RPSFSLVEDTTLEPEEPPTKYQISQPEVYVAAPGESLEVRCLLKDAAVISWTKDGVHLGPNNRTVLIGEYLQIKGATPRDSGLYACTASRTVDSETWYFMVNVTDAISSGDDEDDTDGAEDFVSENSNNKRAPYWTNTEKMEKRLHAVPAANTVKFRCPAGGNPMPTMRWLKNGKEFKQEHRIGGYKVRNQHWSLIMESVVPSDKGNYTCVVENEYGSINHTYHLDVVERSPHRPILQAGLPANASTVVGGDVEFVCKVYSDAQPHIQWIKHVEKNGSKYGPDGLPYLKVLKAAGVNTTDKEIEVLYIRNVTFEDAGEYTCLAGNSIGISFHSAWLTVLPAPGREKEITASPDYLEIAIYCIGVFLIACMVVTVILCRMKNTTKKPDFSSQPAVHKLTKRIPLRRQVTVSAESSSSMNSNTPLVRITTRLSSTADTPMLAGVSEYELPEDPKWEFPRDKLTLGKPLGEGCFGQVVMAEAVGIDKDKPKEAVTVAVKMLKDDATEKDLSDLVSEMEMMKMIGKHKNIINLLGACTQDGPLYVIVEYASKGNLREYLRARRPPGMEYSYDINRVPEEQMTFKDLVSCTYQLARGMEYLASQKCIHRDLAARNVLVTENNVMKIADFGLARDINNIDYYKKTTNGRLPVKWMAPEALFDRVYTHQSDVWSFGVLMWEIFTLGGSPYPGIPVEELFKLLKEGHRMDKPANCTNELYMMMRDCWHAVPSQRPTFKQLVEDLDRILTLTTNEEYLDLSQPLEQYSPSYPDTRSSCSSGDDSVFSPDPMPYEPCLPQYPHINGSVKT
Experimental: as §1

IGF-1R (h) = biological target: T8, IGF-1R (h) (Homo sapiens, UniProt P08069); assay: Upstate kinase panel: IGF-1R; conditions: 10 μM ATP
T8 construct: purchased Upstate
T8 sequence (P08069 31-1367): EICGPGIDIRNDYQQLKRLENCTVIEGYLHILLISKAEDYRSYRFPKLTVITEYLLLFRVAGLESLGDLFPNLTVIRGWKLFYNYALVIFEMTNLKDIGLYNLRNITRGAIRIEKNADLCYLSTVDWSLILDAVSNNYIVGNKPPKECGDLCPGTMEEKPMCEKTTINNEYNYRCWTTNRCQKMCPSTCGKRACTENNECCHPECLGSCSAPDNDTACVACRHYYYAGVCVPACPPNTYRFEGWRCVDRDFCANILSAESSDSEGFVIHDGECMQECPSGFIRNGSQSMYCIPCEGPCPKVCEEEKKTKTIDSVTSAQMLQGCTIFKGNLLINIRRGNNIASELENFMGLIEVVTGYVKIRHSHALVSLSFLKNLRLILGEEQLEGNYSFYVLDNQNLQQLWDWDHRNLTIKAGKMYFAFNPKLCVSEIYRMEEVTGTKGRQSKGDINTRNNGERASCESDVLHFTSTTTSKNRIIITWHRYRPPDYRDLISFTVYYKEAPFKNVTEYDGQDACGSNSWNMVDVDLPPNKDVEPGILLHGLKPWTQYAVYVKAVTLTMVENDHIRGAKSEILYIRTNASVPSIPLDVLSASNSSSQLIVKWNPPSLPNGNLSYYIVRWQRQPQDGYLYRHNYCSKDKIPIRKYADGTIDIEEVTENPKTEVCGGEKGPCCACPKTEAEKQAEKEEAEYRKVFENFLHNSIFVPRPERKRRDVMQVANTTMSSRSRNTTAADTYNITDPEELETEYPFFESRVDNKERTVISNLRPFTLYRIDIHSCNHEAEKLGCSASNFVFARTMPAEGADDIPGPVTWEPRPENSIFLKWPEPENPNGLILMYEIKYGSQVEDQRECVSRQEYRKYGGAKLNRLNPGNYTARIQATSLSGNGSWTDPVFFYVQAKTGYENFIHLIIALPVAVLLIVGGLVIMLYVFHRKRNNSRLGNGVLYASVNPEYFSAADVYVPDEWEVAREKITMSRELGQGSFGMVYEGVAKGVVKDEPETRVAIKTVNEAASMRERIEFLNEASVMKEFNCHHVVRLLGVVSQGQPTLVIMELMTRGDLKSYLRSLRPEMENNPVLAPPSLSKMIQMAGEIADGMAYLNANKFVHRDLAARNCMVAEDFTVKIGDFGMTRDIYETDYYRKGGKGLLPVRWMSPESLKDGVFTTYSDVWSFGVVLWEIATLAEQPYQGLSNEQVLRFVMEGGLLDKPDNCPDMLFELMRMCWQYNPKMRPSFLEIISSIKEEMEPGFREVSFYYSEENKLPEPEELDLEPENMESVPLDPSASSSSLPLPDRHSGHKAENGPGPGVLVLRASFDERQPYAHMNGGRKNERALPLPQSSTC
Experimental: as §1

CDK2/cyclinE (h) = biological target: T9, CDK2/cyclinE (h) (Homo sapiens, UniProt P24941); assay: Upstate kinase panel: CDK2/cyclinE; conditions: 10 μM ATP
T9 construct: purchased Upstate
Experimental: as §1

[1] = compound 1 μM, ATP (200), read-out: % inhibition at 1 μMol
[2] = compound 20 μM, read-out: % inhibition at 20 μMol
[3] = compound 20 μM, 10 μM ATP, read-out: % inhibition at 20 μMol
[4] = compound 10 μM, read-out: % inhibition at 10 μMol
[5] = compound 10 μM, 10 μM ATP, read-out: % inhibition at 10 μMol

inhibition at 1 µM (Flt3 (h); [1]): 0%
inhibition at 1 µM (PDGFRβ (h); compound 1 μM, ATP (120), read-out: % inhibition at 1 μMol): 0%
inhibition at 1 µM (cKit (h); [1]): 4%
inhibition at 1 µM (JAK3 (h); compound 1 μM, ATP (10), read-out: % inhibition at 1 μMol): 5%
inhibition at 1 µM (GSK3B (h); compound 1 μM, ATP (15), read-out: % inhibition at 1 μMol): 0%
inhibition at 1 µM (PKBγ (h); [1]): 2%
Structure (SMILES): CCOC(=O)c1c[nH]c2c(=O)[nH]c3ccc(-c4cccc(S(C)(=O)=O)c4)cc3c12 [Compound 238, 8-(3-Methanesulfonyl-phenyl)-4-oxo-4,5-dihydro-3H-pyrrolo[2,3-c]quinoline-1-ethyl carboxylate]

inhibition at 20 µM (FGFR2 (h); [2]): 82%
inhibition at 20 µM (Flt3 (h); [3]): 91%
inhibition at 20 µM (IGF-1R (h); [2]): 42%
inhibition at 20 µM (PDGFRβ (h); [3]): 13%
inhibition at 20 µM (cKit (h); [3]): 20%
inhibition at 20 µM (CDK2/cyclinE (h); [2]): 97%
inhibition at 20 µM (JAK3 (h); [3]): 58%
inhibition at 20 µM (PKBγ (h); [3]): 5%
Structure (SMILES): CCOC(=O)c1c[nH]c2c(=O)[nH]c3ccccc3c12 [Compound 1, 4-Oxo-4,5-dihydro-3H-pyrrolo[2,3-c]quinoline-1-ethyl carboxylate]

inhibition at 10 µM (FGFR2 (h); [4]): 91%
inhibition at 10 µM (Flt3 (h); [5]): 51%
inhibition at 10 µM (IGF-1R (h); [4]): 0%
inhibition at 10 µM (PDGFRβ (h); [5]): 0%
inhibition at 10 µM (cKit (h); [5]): 45%
inhibition at 10 µM (CDK2/cyclinE (h); [4]): 12%
inhibition at 10 µM (JAK3 (h); [5]): 50%
inhibition at 10 µM (GSK3B (h); [5]): 22%
inhibition at 10 µM (PKBγ (h); [5]): 20%
Structure (SMILES): CCOC(=O)c1c[nH]c2c(=O)[nH]c3ccc(S(=O)(=O)Nc4ccc(F)cc4)cc3c12 [Compound 12, 8-(4-Fluorophenylsulfamoyl)-4-oxo-4,5-dihydro-3H-pyrrolo[2,3-c]quinoline-1-ethyl carboxylate]
